± gives the uncertainty stated by the source.
Test: xn = mol fraction of the nth substance listed

Question: With `CC[n+]1ccn(C)c1.N#C[N-]C#N` + O as the compound, how does the viscosity (288.15 K, 100 kPa, x2 = 0) read?
Answer: 20 ± 1.2 mPa·s

Question: What about the viscosity (288.15 K, 100 kPa, x2 = 0.1016) of the same compound?
Answer: 17.49 ± 0.96 mPa·s

Question: And the viscosity (288.15 K, 100 kPa, x2 = 0.2014)?
Answer: 15.14 ± 0.77 mPa·s

Question: What about the viscosity (288.15 K, 100 kPa, x2 = 0.2999) of the same compound?
Answer: 13.02 ± 0.61 mPa·s

Question: And the viscosity (288.15 K, 100 kPa, x2 = 0.4015)?
Answer: 11.08 ± 0.45 mPa·s

Question: What about the viscosity (288.15 K, 100 kPa, x2 = 0.5106) of the same compound?
Answer: 9.24 ± 0.32 mPa·s

Question: And the viscosity (288.15 K, 100 kPa, x2 = 0.5934)?
Answer: 7.86 ± 0.24 mPa·s

Question: What about the viscosity (288.15 K, 100 kPa, x2 = 0.7465) of the same compound?
Answer: 5.45 ± 0.13 mPa·s

Question: What about the viscosity (288.15 K, 100 kPa, x2 = 0.7974) of the same compound?
Answer: 4.58 ± 0.1 mPa·s

Question: What about the viscosity (288.15 K, 100 kPa, x2 = 0.9004) of the same compound?
Answer: 2.76 ± 0.04 mPa·s

Question: What about the viscosity (288.15 K, 100 kPa, x2 = 0.9498) of the same compound?
Answer: 1.93 ± 0.03 mPa·s

Question: And the viscosity (293.15 K, 100 kPa, x2 = 0)?
Answer: 16.9 ± 1 mPa·s

Question: And the viscosity (293.15 K, 100 kPa, x2 = 0.1016)?
Answer: 14.89 ± 0.81 mPa·s

Question: And the viscosity (293.15 K, 100 kPa, x2 = 0.2014)?
Answer: 12.98 ± 0.66 mPa·s

Question: And the viscosity (293.15 K, 100 kPa, x2 = 0.2999)?
Answer: 11.23 ± 0.52 mPa·s

Question: What about the viscosity (293.15 K, 100 kPa, x2 = 0.4015) of the same compound?
Answer: 9.59 ± 0.39 mPa·s

Question: What about the viscosity (293.15 K, 100 kPa, x2 = 0.5106) of the same compound?
Answer: 8 ± 0.28 mPa·s

Question: What about the viscosity (293.15 K, 100 kPa, x2 = 0.5934) of the same compound?
Answer: 6.83 ± 0.21 mPa·s

Question: What about the viscosity (293.15 K, 100 kPa, x2 = 0.7465) of the same compound?
Answer: 4.74 ± 0.11 mPa·s

Question: What about the viscosity (293.15 K, 100 kPa, x2 = 0.7974) of the same compound?
Answer: 3.99 ± 0.09 mPa·s

Question: And the viscosity (293.15 K, 100 kPa, x2 = 0.9004)?
Answer: 2.41 ± 0.04 mPa·s

Question: And the viscosity (293.15 K, 100 kPa, x2 = 0.9498)?
Answer: 1.69 ± 0.02 mPa·s

Question: And the electrical conductivity (293.2 K, 101 kPa, x2 = 0.6)?
Answer: 4.47 ± 0.1 S/m

Question: And the electrical conductivity (293.2 K, 101 kPa, x2 = 0.8)?
Answer: 5.69 ± 0.13 S/m

Question: And the viscosity (298.15 K, 100 kPa, x2 = 0)?
Answer: 14.54 ± 0.88 mPa·s

Question: What about the viscosity (298.15 K, 100 kPa, x2 = 0.1016) of the same compound?
Answer: 12.86 ± 0.7 mPa·s

Question: And the viscosity (298.15 K, 100 kPa, x2 = 0.2014)?
Answer: 11.23 ± 0.57 mPa·s

Question: What about the viscosity (298.15 K, 100 kPa, x2 = 0.2999) of the same compound?
Answer: 9.77 ± 0.46 mPa·s

Question: And the viscosity (298.15 K, 100 kPa, x2 = 0.4015)?
Answer: 8.37 ± 0.34 mPa·s

Question: And the viscosity (298.15 K, 100 kPa, x2 = 0.5106)?
Answer: 7.01 ± 0.24 mPa·s

Question: What about the viscosity (298.15 K, 100 kPa, x2 = 0.5934) of the same compound?
Answer: 5.99 ± 0.19 mPa·s

Question: What about the viscosity (298.15 K, 100 kPa, x2 = 0.7465) of the same compound?
Answer: 4.16 ± 0.1 mPa·s

Question: And the viscosity (298.15 K, 100 kPa, x2 = 0.7974)?
Answer: 3.5 ± 0.07 mPa·s

Question: What about the viscosity (298.15 K, 100 kPa, x2 = 0.9004) of the same compound?
Answer: 2.13 ± 0.03 mPa·s

Question: And the viscosity (298.15 K, 100 kPa, x2 = 0.9498)?
Answer: 1.5 ± 0.02 mPa·s

Question: What about the viscosity (298.15 K, 101 kPa, x2 = 0) of the same compound?
Answer: 14.9 ± 0.62 mPa·s

Question: And the viscosity (298.15 K, 101 kPa, x2 = 0.2248)?
Answer: 11.24 ± 0.46 mPa·s

Question: What about the viscosity (298.15 K, 101 kPa, x2 = 0.3042) of the same compound?
Answer: 10.14 ± 0.41 mPa·s

Question: And the viscosity (298.15 K, 101 kPa, x2 = 0.4308)?
Answer: 8.39 ± 0.34 mPa·s

Question: What about the viscosity (298.15 K, 101 kPa, x2 = 0.7944) of the same compound?
Answer: 3.61 ± 0.15 mPa·s

Question: And the viscosity (298.15 K, 101 kPa, x2 = 0.8803)?
Answer: 2.46 ± 0.1 mPa·s

Question: What about the viscosity (303.15 K, 100 kPa, x2 = 0) of the same compound?
Answer: 12.63 ± 0.77 mPa·s

Question: And the viscosity (303.15 K, 100 kPa, x2 = 0.1016)?
Answer: 11.21 ± 0.61 mPa·s

Question: What about the viscosity (303.15 K, 100 kPa, x2 = 0.2014) of the same compound?
Answer: 9.84 ± 0.5 mPa·s

Question: And the viscosity (303.15 K, 100 kPa, x2 = 0.2999)?
Answer: 8.59 ± 0.4 mPa·s

Question: What about the viscosity (303.15 K, 100 kPa, x2 = 0.4015) of the same compound?
Answer: 7.38 ± 0.3 mPa·s

Question: And the viscosity (303.15 K, 100 kPa, x2 = 0.5106)?
Answer: 6.19 ± 0.22 mPa·s

Question: And the viscosity (303.15 K, 100 kPa, x2 = 0.5934)?
Answer: 5.29 ± 0.16 mPa·s

Question: And the viscosity (303.15 K, 100 kPa, x2 = 0.7465)?
Answer: 3.67 ± 0.09 mPa·s

Question: What about the viscosity (303.15 K, 100 kPa, x2 = 0.7974) of the same compound?
Answer: 3.09 ± 0.07 mPa·s

Question: And the viscosity (303.15 K, 100 kPa, x2 = 0.9004)?
Answer: 1.89 ± 0.03 mPa·s

Question: And the viscosity (303.15 K, 100 kPa, x2 = 0.9498)?
Answer: 1.34 ± 0.02 mPa·s

Question: And the viscosity (308.15 K, 100 kPa, x2 = 0)?
Answer: 11.05 ± 0.67 mPa·s

Question: What about the viscosity (308.15 K, 100 kPa, x2 = 0.1016) of the same compound?
Answer: 9.86 ± 0.54 mPa·s

Question: What about the viscosity (308.15 K, 100 kPa, x2 = 0.2014) of the same compound?
Answer: 8.69 ± 0.44 mPa·s

Question: And the viscosity (308.15 K, 100 kPa, x2 = 0.2999)?
Answer: 7.61 ± 0.36 mPa·s

Question: What about the viscosity (308.15 K, 100 kPa, x2 = 0.4015) of the same compound?
Answer: 6.55 ± 0.27 mPa·s

Question: What about the viscosity (308.15 K, 100 kPa, x2 = 0.5106) of the same compound?
Answer: 5.5 ± 0.19 mPa·s

Question: And the viscosity (308.15 K, 100 kPa, x2 = 0.5934)?
Answer: 4.71 ± 0.15 mPa·s

Question: What about the viscosity (308.15 K, 100 kPa, x2 = 0.7465) of the same compound?
Answer: 3.27 ± 0.08 mPa·s

Question: And the viscosity (308.15 K, 100 kPa, x2 = 0.7974)?
Answer: 2.76 ± 0.06 mPa·s

Question: What about the viscosity (308.15 K, 100 kPa, x2 = 0.9004) of the same compound?
Answer: 1.7 ± 0.03 mPa·s

Question: What about the viscosity (308.15 K, 100 kPa, x2 = 0.9498) of the same compound?
Answer: 1.2 ± 0.02 mPa·s

Question: And the electrical conductivity (308.2 K, 101 kPa, x2 = 0.2)?
Answer: 3.89 ± 0.08 S/m

Question: What about the electrical conductivity (308.2 K, 101 kPa, x2 = 0.6) of the same compound?
Answer: 6.36 ± 0.14 S/m

Question: And the viscosity (313.15 K, 100 kPa, x2 = 0)?
Answer: 9.76 ± 0.59 mPa·s

Question: What about the viscosity (313.15 K, 100 kPa, x2 = 0.1016) of the same compound?
Answer: 8.74 ± 0.48 mPa·s

Question: What about the viscosity (313.15 K, 100 kPa, x2 = 0.2014) of the same compound?
Answer: 7.73 ± 0.39 mPa·s

Question: What about the viscosity (313.15 K, 100 kPa, x2 = 0.2999) of the same compound?
Answer: 6.79 ± 0.32 mPa·s

Question: And the viscosity (313.15 K, 100 kPa, x2 = 0.4015)?
Answer: 5.86 ± 0.24 mPa·s

Question: And the viscosity (313.15 K, 100 kPa, x2 = 0.5106)?
Answer: 4.93 ± 0.17 mPa·s

Question: And the viscosity (313.15 K, 100 kPa, x2 = 0.5934)?
Answer: 4.23 ± 0.13 mPa·s

Question: What about the viscosity (313.15 K, 100 kPa, x2 = 0.7465) of the same compound?
Answer: 2.93 ± 0.07 mPa·s

Question: And the viscosity (313.15 K, 100 kPa, x2 = 0.7974)?
Answer: 2.48 ± 0.05 mPa·s

Question: And the viscosity (313.15 K, 100 kPa, x2 = 0.9004)?
Answer: 1.53 ± 0.02 mPa·s

Question: What about the viscosity (313.15 K, 100 kPa, x2 = 0.9498) of the same compound?
Answer: 1.09 ± 0.02 mPa·s

Question: And the viscosity (313.15 K, 101 kPa, x2 = 0.2248)?
Answer: 7.79 ± 0.32 mPa·s

Question: What about the viscosity (313.15 K, 101 kPa, x2 = 0.8803) of the same compound?
Answer: 1.73 ± 0.07 mPa·s

Question: What about the viscosity (313.15 K, 101 kPa, x2 = 0.953) of the same compound?
Answer: 1.08 ± 0.04 mPa·s

Question: What about the electrical conductivity (313.2 K, 101 kPa, x2 = 0.2) of the same compound?
Answer: 4.32 ± 0.09 S/m

Question: What about the electrical conductivity (313.2 K, 101 kPa, x2 = 0.8) of the same compound?
Answer: 8.83 ± 0.19 S/m

Question: And the viscosity (318.15 K, 100 kPa, x2 = 0)?
Answer: 8.69 ± 0.53 mPa·s

Question: What about the viscosity (318.15 K, 100 kPa, x2 = 0.1016) of the same compound?
Answer: 7.79 ± 0.43 mPa·s

Question: And the viscosity (318.15 K, 100 kPa, x2 = 0.2014)?
Answer: 6.92 ± 0.35 mPa·s

Question: And the viscosity (318.15 K, 100 kPa, x2 = 0.2999)?
Answer: 6.1 ± 0.28 mPa·s

Question: What about the viscosity (318.15 K, 100 kPa, x2 = 0.4015) of the same compound?
Answer: 5.27 ± 0.21 mPa·s

Question: And the viscosity (318.15 K, 100 kPa, x2 = 0.5106)?
Answer: 4.45 ± 0.16 mPa·s

Question: What about the viscosity (318.15 K, 100 kPa, x2 = 0.5934) of the same compound?
Answer: 3.81 ± 0.12 mPa·s

Question: And the viscosity (318.15 K, 100 kPa, x2 = 0.7465)?
Answer: 2.64 ± 0.06 mPa·s

Question: What about the viscosity (318.15 K, 100 kPa, x2 = 0.7974) of the same compound?
Answer: 2.24 ± 0.05 mPa·s

Question: What about the viscosity (318.15 K, 100 kPa, x2 = 0.9004) of the same compound?
Answer: 1.39 ± 0.02 mPa·s

Question: And the viscosity (318.15 K, 100 kPa, x2 = 0.9498)?
Answer: 0.99 ± 0.01 mPa·s

Question: What about the electrical conductivity (318.2 K, 101 kPa, x2 = 0.2) of the same compound?
Answer: 4.77 ± 0.1 S/m

Question: What about the viscosity (328.15 K, 101 kPa, x2 = 0.7944) of the same compound?
Answer: 1.9 ± 0.08 mPa·s

Question: What about the electrical conductivity (328.2 K, 101 kPa, x2 = 0.2) of the same compound?
Answer: 5.74 ± 0.12 S/m

Question: What about the electrical conductivity (338.2 K, 101 kPa, x2 = 0.4) of the same compound?
Answer: 8.22 ± 0.17 S/m

Question: And the electrical conductivity (338.2 K, 101 kPa, x2 = 0.6)?
Answer: 10.6 ± 0.22 S/m

Question: What about the viscosity (343.15 K, 101 kPa, x2 = 0) of the same compound?
Answer: 5.48 ± 0.23 mPa·s

Reference: the CheMixHub ionic liquid set
